Literature values, collected in patent US10463673B2, “Nanoparticulate meloxicam formulations” (Recro Pharma, Inc., priority 2003, dated 2019).
Like-named read-outs stand apart in the source and are kept apart here.

What was measured:
[1] = oral; for Cmax, mean (% CV) / tmax, mean (% CV): 15 mg capsules
[2] = Single dose, hepatic insufficiency (Fasted)
[3] = Single dose, renal failure (Fasted)
[4] = Steady state, elderly females (Fed)
[5] = Steady state, elderly males (Fed)

Cc1cnc(NC(=O)C2=C(O)c3ccccc3S(=O)(=O)N2C)s1 [Meloxicam, 4-hydroxy-2-methyl-N-(5-methyl-2-thiazolyl)-2-H-1,2-benzothiazine-3-carboxamide 1,1-dioxide]
Cmax, mean (% CV) [1, 2]: 0.84 (29) μg/mL | tmax, mean (% CV) [1, 2]: 10 (87) h | Cmax, mean (% CV) [1, 3]: 0.59 (36) μg/mL | tmax, mean (% CV) [1, 3]: 4 (65) h | Cmax, mean (% CV) [1, 4]: 3.2 (24) μg/mL | tmax, mean (% CV) [1, 4]: 6 (27) h | Cmax, mean (% CV) [1, 5]: 2.3 (59) μg/mL | tmax, mean (% CV) [1, 5]: 5 (12) h | time of second meloxicam concentration peak post-dose ([1]; fasted steady state conditions): twelve to fourteen | solubility in methanol (methanol): very slightly soluble | solubility in strong acids and bases (strong acids and bases, compared with water): higher solubility | solubility in water (water): practically insoluble | COX-2/COX-1 inhibition ratio (COX-2): 0.09
